Assay results as given in patent US20120156150A1, “Composition for Improving Skin Condition Comprising Extract from Black Tea as Active Ingredient” (Keimyung University Industry Academic Cooperation Foundation, priority 2010, published 2012).
Marks after values point to notes of the source that are not given here.

What was measured:
[1] = target: tyrosinase (Homo sapiens, UniProt P14679); conditions: Briganti et al. 2003; cited from earlier work
[2] = Electron donating ability (DPPH radical scavenging, Blois' method); conditions: 800 μg/mL
Experimental: DPPH radical scavenging effect was measuring according to the Blois' method (1958). […] After adding 1 mL of the test sample in a test tube, 4×10^−4 M DPPH (4 mL) was added. The resulting mixture was shaken vigorously, allowed to stand in warm water of 60° C. for 10 seconds, and absorbance was measured at 525 nm. BHT was used as the positive control group. Then, free radical scavenging activity of each solution was calculated as “% inhibition” according to the following equation: % inhibition=[1−(Asample/Ablank)]×100, wherein Ab1ank is the absorbance of the control group (excluding the test sample) and Asample is the absorbance of the test compound.

[3] = test system: melanin pigmentation in the epithelium; assay: Fontana-Masson's silver staining, melanin-pigmented area; assay type: in vivo, brown guinea pig; conditions: week 4; 2% sample
Experimental: In order to observe the morphological change of the skin tissue using an optical microscope, the extracted skin tissue was fixed in a 10% neutral formalin solution for 12 hours and washed with flowing water. After dehydrating in 70, 80, 95 and 100% ethanol followed by washing with xylene, the tissue was embedded in paraffin and 4 μm-thick samples were prepared using a microtome.
Paraffin was removed from the sample using xylene. After staining the sample for 60 minutes in silver nitrate solution at 56° C. according to the Masson's method (1928), followed by washing, color-toning 0.2% gold chloride solution and washing again, the sample was kept in 5% sodium thiosulfate solution for 5 minutes. Subsequently, after washing the sample once again, followed by counterstaining in nuclear fast red solution, dehydration in 95%, 95%, 100% and 100% alcohol and washing with xylene, the sample was put in Canada balsam for microscopic observation. The percentage of the melanin-pigmented area was calculated using an image analysis software.

[4] = test system: gp100 protein; assay: Immunohistochemical HMB-45 staining (gp100); assay type: in vivo, brown guinea pig; conditions: week 4; 2% sample
Experimental: (§1) After dehydration, followed by washing with xylene and embedding in paraffin, 4 μm-thick samples were prepared. The sample was adhered on a coating slide and stained using the BenchMark XT automated immunostainer (Ventana Medical Systems, USA) after removing paraffin. […] Following reaction with S-100 and HMB-45 primary antibodies diluted to 1:100, the sample was washed with reaction buffer, reacted with biotin for 20 minutes, and then reacted with streptavidin for 25 minutes. After coloring with diaminobenzidine (DAB) using the Ventana detection kit), the sample was stained for observation using an optical microscope.

[5] = test system: S-100 protein; assay: Immunohistochemical S-100 staining; assay type: in vivo, brown guinea pig; conditions: week 4; 2% sample
Experimental: as §1

[6] = test system: hyperpigmentation; conditions: Ortonne and Passeron 2005; cited from earlier work
[7] = test system: UVB-induced hyperpigmentation; assay: Melanin index (mexameter), brown guinea pig; assay type: in vivo; conditions: 2% sample topical
Experimental: Three brown guinea pigs weighing 450-550 g were purchased from Oriental Yeast Co. Ltd. (OYC; Japan). The animals were accustomed to the test environment for 7 days. The animals were housed in individual cages under the environment of 22±1° C. and 50±5% relative humidity with 12-hour alternate dark/light cycles. Feed and water were given ad libitum.
UVB-induced hyperpigmentation was elicited on the back of the brown guinea pig according to the method of Choi et al. (2004). After anesthetizing the guinea pig with ketamine hydrochloride (100 mg/kg BW), 24 separate areas (φ 12 mm) on the skin of the back was exposed to UVB radiation (302-nm sunlamp). The areas were exposed to UVB of 500 mJ/cm^2 for 3 consecutive weeks, once a week. That is, a total of 1,500 mJ/cm^2 of UVB was radiated.
On day 10 after the final UVB radiation, 30 μL (1.06 mg/cm^2/day) of 2% HQ, EGCG, GT, WT or BT was topically applied for 4 weeks to the hyperpigmented areas (9 areas per each) using a micropipette, twice a day, and 4 days a week. Saline was used as control, and propylene glycol:ethanol:water (5:3:2) was used as vehicle control.
Before and after the topical application of the test sample, change in melanin pigmentation was measured 3 times in a non-invasive manner using a mexameter, once a week. The degree of pigmentation was analyzed by averaging the measured values.

[8] = test system: UVB-induced wrinkles; assay: Measurement of wrinkles (skin replica, Visioline); assay type: in vivo, SKH-1 hairless mouse; conditions: RA 0.01%, GT/WT/BT 2%
Experimental: (§2) 7-week-old SKH-1 hairless mice was purchased from Charles River (Japan). The animals were accustomed to the test environment for 1 week. The animals were housed in individual cages under the environment of 22±1° C. and 50±5% relative humidity with 12-hour alternate dark/light cycles. Feed and water were given ad libitum. The animals were grouped into 7 groups as follows, with 7 mice per each:
(§3) The mouse was subjected to UVB radiation (302 nm sunlamp) on the back for […], 3 times a week. The radiation amount was 1 minimal erythemal dose (MED: 60 mJ/cm^2) on the 1st week, 2 MED (120 mJ/cm^2) on the 2nd week, 3 MED (180 mJ/cm^2) on the 3rd week, and 4 MED (240 mJ/cm^2) on the 4th to 12th weeks. The radiation with 4 MED was carried out once a week during the test period.
(§4) After inducing wrinkle formation, 200 μL of saline or the sample was applied for 4 weeks, 5 times a week (2%: 0.26 g/kg BW/day). RA was applied together with polyethylene glycol at a concentration of 0.01% for 4 weeks, 5 times a week, twice a day, with 200 μL per each.
Skin replica was prepared from the back skin of the hairless mouse using the Silflo impression material (Flexico, England). The roughness of the skin was assessed using Visioline. Total wrinkle area (mm^2) was calculated.

[9] = Organ weight (spleen, thymus); assay type: in vivo, SKH-1 hairless mouse
Experimental: After extracting the skin, a portion of the skin was fixed in 10% neutral-buffered formalin solution for histological analysis and the remainder was kept in a refrigerator (−80° C.) for analysis of MMPs. Thymus and spleen extracts were washed with saline and weighed on an electronic scale after removing water with filer paper.

[10] = Water and feed intake, feed efficiency and body weight; assay type: in vivo, SKH-1 hairless mouse
Experimental: Water and feed intake of the test animal was measured once a week. Body weight was measured between 09:00 and 10:00 in the morning, once a week during the test period.

[11] = test system: UVB-irradiated skin; assay: Skin water content (corneometer), SKH-1 hairless mouse; assay type: in vivo; conditions: for water content of the skin: RA 0.01%, GT/WT/BT 2%
Experimental: as §2, §3, §4
(§5) Skin erythema index, water content and transepidermal water loss (TEWL) were measured in a non-invasive manner using a mexameter, a corneometer and a tewameter, once a week during the test period.

[12] = Hematological analysis; assay type: in vivo, SKH-1 hairless mouse; conditions: RA 0.01%, GT/WT/BT 2%
Experimental: Blood sample was added to a blood collection tube containing the anticoagulant K2EDTA and mixed for more than 5 minutes. Then, concentration of erythrocytes, leukocytes, neutrophils, eosinophils, basophils, lymphocytes, monocytes, platelets and hemoglobin and hematocrit were measured using a hematological analyzer.

[13] = test system: UVB-irradiated skin; assay: Transepidermal water loss (TEWL), SKH-1 hairless mouse; assay type: in vivo; conditions: for TEWL: RA 0.01%, GT/WT/BT 2%
Experimental: as §2, §3, §4, §5

[14] = test system: UVB-irradiated skin; assay: Skin erythema index, SKH-1 hairless mouse; assay type: in vivo; conditions: for skin erythema index: RA 0.01%, GT/WT/BT 2%
Experimental: as §2, §3, §4, §5

[15] = test system: MMP-3; assay: RT-PCR, MMP-3 mRNA in skin tissue; assay type: in vivo, SKH-1 hairless mouse; conditions: RA 0.01%, GT/WT/BT 2%
Experimental: 50 mg of the sample from the mouse back skin kept at low temperature was homogenized with 1 mL of Trizol. The homogenized sample was incubated at room temperature for 5 minutes after adding 200 μL of chloroform, and centrifuged at 15,000 rpm and 4° C. for 10 minutes. After collecting and transferring the supernatant to a fresh tube and adding 500 μL of isopropyl alcohol, the sample was centrifuged at 4° C. and 15,000 rpm for 15 minutes. The resulting RNA pellet was washed with 1 mL of 70% ethanol and centrifuged at 4° C. and 15,000 rpm for 15 minutes. The RNA pellet finally obtained by removing the supernatant was diluted with diethylpyrocarbonate (DEPC) and quantitated with 1.8<optical density (OD; A260/A280)<2.0 using a white light/UV transilluminator. cDNA was synthesized from total RNA at a concentration of 0.1-1 μg/μL using the Cycle Script RT PreMix (dT20) kit. The cDNA synthesis was performed by 12 cycles of 1 minute at 30° C. and 4 minutes at 50° C. in 205 μL of DEPC, and the sample was heated at 95° C. for 5 minutes. Polymerase chain reaction (PCR) was carried out in 15.2 μL of sterilized water containing 2 μL of template and […] of primer using the Accupower™ PCR PreMix kit. The reaction was carried out for 35 cycles. […] DNA band density was calculated using the Kodak Gel Logic 100 image analysis system.

Chain of tyrosinase (P14679 19-529, species assumed): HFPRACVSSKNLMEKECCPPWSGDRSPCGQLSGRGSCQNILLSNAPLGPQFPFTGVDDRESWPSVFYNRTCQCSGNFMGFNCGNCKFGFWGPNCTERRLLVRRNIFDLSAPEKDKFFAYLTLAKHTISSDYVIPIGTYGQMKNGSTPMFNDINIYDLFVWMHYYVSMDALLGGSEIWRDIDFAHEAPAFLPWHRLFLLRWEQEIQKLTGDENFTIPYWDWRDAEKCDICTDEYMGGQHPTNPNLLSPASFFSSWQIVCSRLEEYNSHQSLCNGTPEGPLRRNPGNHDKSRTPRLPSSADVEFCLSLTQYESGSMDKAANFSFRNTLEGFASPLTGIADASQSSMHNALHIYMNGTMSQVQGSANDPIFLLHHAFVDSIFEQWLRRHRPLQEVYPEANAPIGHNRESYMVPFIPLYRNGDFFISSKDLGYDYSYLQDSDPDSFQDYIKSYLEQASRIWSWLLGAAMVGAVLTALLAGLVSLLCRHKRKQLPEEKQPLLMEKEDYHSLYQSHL

In the case of `Oc1ccc(O)cc1` [HQ, Hydroquinone], the “decreases tyrosinase activity up to” value [1] is listed as “up to 90%”, the Electron donating ability [2] is listed as 93% and the “% of melanin pigment” value [3] is listed as 9.5 ± 1.5^bc %. For the same compound, the Melanin pigment area [3] was 1163 ± 268 μm^2, the “melanin pigmented area decreased by, as compared to the control group” value [3] was 53% and the “% of Melanin pigment (Table 5, gp 100 protein)” value [4] was 4.4 ± 0.8^c %. The “Melanin pigment (area; Table 5, gp 100 protein)” value [4] was 469 ± 111 μm^2, the “area of gp 100 protein expression, decrease by, as compared to the group C” value [4] was 68% and the “% of S-100 Protein” value [5] was 4.3 ± 0.5^ab %. For the same compound, the “S-100 Protein area” value [5] was 511 ± 89 μm^2, the “area of S-100 protein expression, decrease by, as compared to the control groups” value [5] was 69% and the “improves hyperpigmentation in % of cases” value [6] was 14-70%. The melanin index ([7]; week 0) was 724.8 ± 22.8^a AU, the melanin index ([7]; week 1) was 702.9 ± 24.4^a* AU and the melanin index ([7]; week 2) was 673.9 ± 26.1^c AU. The melanin index ([7]; week 3) was 636.7 ± 25.8^b AU, the melanin index ([7]; week 4) was 583.0 ± 28.0^b AU and the “melanin index decreased by, as compared to the group C” value ([7]; week 4) was 17%.

For `CC1=C(/C=C/C(C)=C/C=C/C(C)=C/C(=O)O)C(C)(C)CCC1` [RA, retinoic acid], the “decreased wrinkle area as compared to the control group” value [8] was 49%, the Spleen absolute weight ([9]; RA 0.01%, GT/WT/BT 2%) was 0.136 ± 0.015^a g and the Spleen relative weight ([9]; RA 0.01%, GT/WT/BT 2%) was 0.475 ± 0.053^a g/100 g body weight. The Thymus absolute weight ([9]; RA 0.01%, GT/WT/BT 2%) was 0.019 ± 0.005^ab g, the Thymus relative weight ([9]; RA 0.01%, GT/WT/BT 2%) was 0.067 ± 0.01^ab g/100 g body weight and the “organ weight relative to the normal group” value ([9]; p <0.05) was “significantly lower”. For the same compound, the Food efficiency ratio ([10]; (Body weight gain/Food intake) × 100) was −0.94 ± 1.71^a %, the Body weight gain ([10]; RA 0.01%, GT/WT/BT 2%) was −0.050 ± 0.09^a g/day and the Food intake ([10]; RA 0.01%, GT/WT/BT 2%) was 5.36 ± 1.06^a g/day. The Water intake ([10]; RA 0.01%, GT/WT/BT 2%) was 8.57 ± 1.75^b Ml/day, the “water intake as compared to the control group” value ([10]; p <0.05) was “remarkably higher water intake” and the “water content of the skin” value ([11]; week 1) was 57.99 ± 7.31^b AU. For the same compound, the “water content of the skin” value ([11]; week 2) was 65.70 ± 5.75^c AU, the “water content of the skin” value ([11]; week 3) was 71.42 ± 5.82^cd AU and the “water content higher as compared to the control group” value ([11]; week 4) was 207%. For the same compound, the “water content of the skin” value ([11]; week 4) was 88.59 ± 4.87^cd AU, the Basophil [12] was 0.004 ± 0.04^a k/μl and the Eosinophil [12] was 0.050 ± 0.05^a k/μl. For the same compound, the HCT [12] was 43.442 ± 0.87^b %, the Hb [12] was 13.800 ± 0.18^b g/dl and the Lymphocyte [12] was 6.462 ± 0.34^c k/μl. For the same compound, the Monocyte [12] was 0.204 ± 0.06^b k/μl, the Neutrophil [12] was 2.340 ± 0.39^cd k/μl and the Platelet [12] was 517.80 ± 16.44^b k/μl. The RBC [12] was 4.274 ± 0.17^b M/μl, the WBC [12] was 9.114 ± 0.55^b k/μl and the TEWL ([13]; week 1) was 24.16 ± 4.49^c** g/m^2/h. The TEWL ([13]; week 2) was 18.33 ± 4.85^b** g/m^2/h, the TEWL ([13]; week 3) was 18.76 ± 3.66^c g/m^2/h and the “TEWL lower as compared to the control group” value ([13]; week 4) was 58%. The TEWL ([13]; week 4) was 16.90 ± 3.59^b g/m^2/h, the skin erythema index ([14]; week 1) was 314.38 ± 17.33^c AU and the skin erythema index ([14]; week 2) was 301.10 ± 16.60^b AU. The skin erythema index ([14]; week 3) was 294.43 ± 13.14^b AU, the “skin erythema index lower as compared to the control group” value ([14]; week 4) was 32% and the skin erythema index ([14]; week 4) was 282.64 ± 15.50^b AU. For the same compound, the “expression level of MMP-3 mRNA lower as compared to the control group” value [15] was 77%.
